Some results are limits rather than exact numbers.

The values below come from patent publication US11932652B2, “Pyrrolidinyl urea derivatives and application thereof in TrkA-related diseases” (ZHANGZHOU PIEN TZE HUANG PHARMACEUTICAL CO., LTD., priority 2018, dated 2024).

Data set [1] concerns plasma protein. Kind of data set: Plasma protein binding rate (PPB) test, human plasma. It is filed as in vitro ADME. As to conditions: 2 μM, dialysis 37° C. 4 hours. How it is done: The protein binding rates of the test compound in the plasma of humans, SD rats and Beagle dogs were determined.
796 μL of blank plasma from humans, SD rats and Beagle dogs (plasma purchased from BioreclamationIVT) were taken, 4 μL of working solution of the test compound (400 μM) or warfarin working solution (400 μM) was added and the final concentration of the test compound or warfarin was 2 μM. The sample was mixed thoroughly. The final concentration of organic phase DMSO was 0.5%; 50 μL of the plasma sample treated with the test compound or warfarin was pipetted into the sample receiving plate, and a corresponding volume of blank plasma or buffer was added immediately so that the final volume in each sample well was 100 μL, the volume ratio of plasma:dialysis buffer was 1:1; 400 μL of stop solution was added to these samples, and these samples were used as T0 samples for recovery and stability determination. To samples were stored at 2° C. to 8° C. for subsequent processing together with other dialyzed samples; 150 μL of the plasma sample treated with the test compound or warfarin was added into the dosing end of each dialysis hole, and 150 μL of blank dialysis buffer was added to the receiving end corresponding to the dialysis hole. Then the dialysis plate was sealed with gas-permeable membrane and placed in a humidified 5% CO2 incubator, and incubated at 37° C. with 100 rpm shaking for 4 hours. After the dialysis, 50 μL of the dialysis buffer sample and the dialysis plasma sample was transferred to a new sample receiving plate. […] All samples were analyzed by LC/MS/MS after protein precipitation, and the plasma protein unbound rate, binding rate and recovery rate was calculated according to the following formula: % unbound rate=100*free compound concentration at the membrane buffer side/total compound concentration at the membrane plasma side, % protein binding rate=100-% unbound rate, % recovery rate=100*(free compound concentration at the membrane buffer side+total compound concentration at the membrane plasma side)/total compound concentration before dialysis.

The target in data set [2] is T1, CYP2C19 (Homo sapiens, UniProt P33261).
T1 construct: from tissue; host or cells: human liver microsomes
T1 sequence (P33261 whole entry): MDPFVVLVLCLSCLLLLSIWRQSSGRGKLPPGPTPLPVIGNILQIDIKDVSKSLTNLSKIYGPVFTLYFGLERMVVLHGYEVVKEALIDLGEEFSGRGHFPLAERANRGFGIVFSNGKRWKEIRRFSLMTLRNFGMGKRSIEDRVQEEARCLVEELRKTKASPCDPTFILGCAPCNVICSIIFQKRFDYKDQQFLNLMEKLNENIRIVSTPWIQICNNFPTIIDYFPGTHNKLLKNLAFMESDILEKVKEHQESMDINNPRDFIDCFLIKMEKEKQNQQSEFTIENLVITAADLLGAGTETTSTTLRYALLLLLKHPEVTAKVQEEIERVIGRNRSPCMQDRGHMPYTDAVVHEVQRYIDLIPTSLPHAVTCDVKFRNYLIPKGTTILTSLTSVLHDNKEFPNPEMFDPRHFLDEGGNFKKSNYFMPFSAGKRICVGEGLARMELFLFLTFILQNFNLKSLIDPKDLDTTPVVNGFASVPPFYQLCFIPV
Kind of data set: Cytochrome P450 isozyme inhibitory activity test, CYP2C19. It is filed as in vitro ADME. As to conditions: heading: Cytochrome P450 isozyme IC50, CYP2C19; human liver microsome. How it is done:
Determination of the inhibitory activity of the test compound on different human cytochrome P450 isozymes.
The test compound, standard inhibitor (100×final concentration), and a mixed substrate working solution were prepared; the microsome frozen in −80° C. refrigerator was thawed. 2 μL of the test compound and standard inhibitor solution was added to the corresponding wells, and at the same time 2 μL of the corresponding solvent was added to the non-inhibitor control wells (NIC) and blank control wells (Blank) wells; then 20 μL of mixed substrate solution was added to the corresponding wells, except for the Blank wells (20 μL of PB was added to the Blank wells); a human liver microsome solution was prepared (put back into the refrigerator immediately after using and marking the date), and then 158 μL of the human liver microsome solution was added to all wells; the above sample plate was placed in a 37° C. water bath for pre-incubation, then the coenzyme factor (NADPH) solution was prepared; 10 minutes later, 20 μL of the NADPH solution was added to all wells, and the sample plate was shaken well, placed in a 37° C. water bath and incubated for 10 minutes; at the corresponding time point, 400 μL of cold acetonitrile solution (internal standard: 200 ng/mL tolbutamide and labetalol) was added to terminate the reaction; the sample plate was evenly mixed, centrifuged at 4000 rpm for 20 minutes to precipitate proteins; 200 μL of the supernatant was added to 100 μL of water, shook well, and tested by LC/MS/MS.

The nature of data set [3]: In vivo pharmacokinetics in beagle dogs after single administration. Here is the method: Male beagle dogs were used as test animals, the concentration of the compound in blood after single administration was determined to evaluate the pharmacokinetic behavior.
Beagle dogs (Male, 6-12 kg, more than 6 months, Beijing Marshall Biotechnology Co., Ltd.).
The objective of the test was to study the pharmacokinetic characteristics of the test compound in non-rodent after intravenous injection and oral administration. In the experiment, the test compound was prepared into a clear solution or homogeneous suspension and administered to the beagle dogs by single intravenous injection or oral administration. In the intravenous injection group, the menstruum was a certain proportion of dimethyl sulfoxide in HP-β-cyclodextrin solution or a certain proportion of ethanol, polyethylene glycol 400 and physiological saline solution, the mixture was vortexed and subjected to ultrasonic treatment to prepare 2 mg/mL or […] clear solution, then filtered with microporous membrane for later use; in the oral administration group, the menstruum was a certain proportion of dimethyl sulfoxide in HP-β-cyclodextrin solution or a certain proportion of sodium carboxymethyl cellulose solution, the test compound was mixed with the menstruum, vortexed and subjected to ultrasonic treatment to prepare 2 mg/mL clear solution or 1 mg/mL homogeneous suspension for later use. After 2 mg/kg or 1 mg/kg intravenous administration or 10 mg/kg or 5 mg/kg oral administration to the Beagle dogs, a certain amount of whole blood samples were collected, centrifuged at 3000 g for 10 minutes, and the supernatant was separated to obtain plasma samples; then an acetonitrile solution containing internal standard with a volume 10 times that of the plasma sample was added to precipitate proteins, and then centrifuged; the supernatant was separated for analysis; LC-MS/MS analysis method was used to quantitatively analyze the blood drug concentration, and Phoenix WinNonlin software (Pharsight, USA) was used to calculate the pharmacokinetic parameters, such as peak concentration, time to peak concentration, clearance rate, half-life, area under the concentration-time curve, bioavailability, etc.
Among them, C0 is the initial concentration, T1/2 is the elimination half-life, Vdss is the steady-state apparent volume of distribution, Cl is the total clearance rate, AUC0-inf is the area under the plasma drug concentration-time curve from time 0 to infinity, Cmax is the peak concentration, Tmax is the time to peak concentration.

Setting [4] is: male, beagle, dog, plasma, 10 mg/kg, dogs, 10 mpk oral administration.

With `COCCN1C[C@@H](n2ccc(F)c2)[C@H](NC(=O)Nc2c(C)c(-c3cnc(C4(F)COC4)nc3)nn2-c2ccccc2)C1` [Compound 7], the “Plasma protein unbound rate, Human plasma” value in data set [1] is listed as 13.2%. Also, the IC50 in data set [2] is over 50 µM. Also, the “pharmacokinetic properties and oral bioavailability (in words)” value in data set [3] (in beagle dogs) is “good pharmacokinetic properties and oral bioavailability”. Also, in data set [3] (setting [4]), the AUC(0-inf) amounted to 7.69 µM·h, the Cmax turned out to be 3.95 µM, the Tmax came out at 0.63 h and the bioavailability turned out to be 33%. Besides, the half-life in data set [3] (setting [4]) was 2.2 h.

In general, IC50 refers to the concentration needed to halve the response being measured. For orientation: AUC(0-inf) means total exposure, with the tail of the curve extrapolated. One may read the Cmax as the highest concentration seen after dosing. Usually Tmax stands for the time from dosing to the highest level. One may read the bioavailability as dose-corrected exposure relative to a reference, in per cent. As a reminder, the half-life is the time in which the quantity being followed falls by half. Higher therefore signals slow loss.
